The supplement of paper PMC10307832

Tests used:
Assay in all cases: relative viability (nuclei count vs DMSO), 5 days (fraction); higher = more cells survive
NCI-H1437 = tested on: NCI-H1437
Summary of the method: (§1)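 Dosing by pin tool came one day after lung cancer cell lines were seeded in 1536-well plates, using either one drug or a fixed anchor-drug dose plus five library-drug doses (not always all listed) in √10 steps. After 5 days, nuclei were counted on 4× images. Relative viability is treated-well nuclei count divided by vehicle-well nuclei count, and values are medians of duplicate plates.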

COR-L 105 = tested on: COR-L 105
Summary of the method: as §1

NCI-H661 = tested on: NCI-H661
Summary of the method: as §1

NCI-H1975 = tested on: NCI-H1975
Summary of the method: as §1

UMC-11 = tested on: UMC-11
Summary of the method: as §1

NCI-H2023 = tested on: NCI-H2023
Summary of the method: as §1

HCC-78 = tested on: HCC-78
Summary of the method: as §1

LCLC-103H = tested on: LCLC-103H
Summary of the method: as §1

HARA = tested on: HARA
Summary of the method: as §1

NCI-H1944 = tested on: NCI-H1944
Summary of the method: as §1

COR-L23 = tested on: COR-L23
Summary of the method: as §1

NCI-H2085 = tested on: NCI-H2085
Summary of the method: as §1

HCC-44 = tested on: HCC-44
Summary of the method: as §1

NCI-H727 = tested on: NCI-H727
Summary of the method: as §1

NCI-H2405 = tested on: NCI-H2405
Summary of the method: as §1

NCI-H358 = tested on: NCI-H358
Summary of the method: as §1

EPLC-272H = tested on: EPLC-272H
Summary of the method: as §1

NCI-H1792 = tested on: NCI-H1792
Summary of the method: as §1

NCI-H1395 = tested on: NCI-H1395
Summary of the method: as §1

SK-LU-1 = tested on: SK-LU-1
Summary of the method: as §1

HCC-15 = tested on: HCC-15
Summary of the method: as §1

HCC-366 = tested on: HCC-366
Summary of the method: as §1

HCC-827 = tested on: HCC-827
Summary of the method: as §1

O=C(O)CCCCC(CCSCc1ccccc1)SCc1ccccc1 (centres undefined) [CPI-613] + Cc1nc(NC(=O)N2CCC[C@H]2C(N)=O)sc1-c1ccnc(C(C)(C)C(F)(F)F)c1 [Alpelisib] (partner 2 µM)
relative viability (NCI-H1437; first compound 5 µM): 0.944
relative viability (NCI-H1437; first compound 15.81 µM): 0.961
relative viability (NCI-H1437; first compound 50 µM): 1.03
relative viability (NCI-H1437; first compound 158.11 µM): 0.16
relative viability (NCI-H1437; first compound 500 µM): 0.0244
relative viability (COR-L 105; first compound 5 µM): 0.888
relative viability (COR-L 105; first compound 15.81 µM): 1.11
relative viability (COR-L 105; first compound 50 µM): 0.909
relative viability (COR-L 105; first compound 158.11 µM): 0.476
relative viability (COR-L 105; first compound 500 µM): 0.161
relative viability (NCI-H661; first compound 5 µM): 0.68
relative viability (NCI-H661; first compound 15.81 µM): 0.515
relative viability (NCI-H661; first compound 50 µM): 0.939
relative viability (NCI-H661; first compound 158.11 µM): 0.594
relative viability (NCI-H661; first compound 500 µM): 0.608
relative viability (NCI-H1975; first compound 5 µM): 0.542
relative viability (NCI-H1975; first compound 15.81 µM): 0.655
relative viability (NCI-H1975; first compound 50 µM): 0.692
relative viability (NCI-H1975; first compound 158.11 µM): 0.327
relative viability (NCI-H1975; first compound 500 µM): 0.0528
relative viability (UMC-11; first compound 5 µM): 0.89
relative viability (UMC-11; first compound 15.81 µM): 0.964
relative viability (UMC-11; first compound 50 µM): 1.02
relative viability (UMC-11; first compound 158.11 µM): 0.398
relative viability (UMC-11; first compound 500 µM): 0.0725
relative viability (NCI-H2023; first compound 5 µM): 0.624
relative viability (NCI-H2023; first compound 15.81 µM): 0.576
relative viability (NCI-H2023; first compound 50 µM): 0.548
relative viability (NCI-H2023; first compound 158.11 µM): 0.0809
relative viability (NCI-H2023; first compound 500 µM): 0.0084
relative viability (HCC-78; first compound 5 µM): 0.26
relative viability (HCC-78; first compound 15.81 µM): 0.309
relative viability (HCC-78; first compound 158.11 µM): 0.338
relative viability (HCC-78; first compound 500 µM): 0.358
relative viability (LCLC-103H; first compound 5 µM): 0.845
relative viability (LCLC-103H; first compound 15.81 µM): 0.974
relative viability (LCLC-103H; first compound 50 µM): 0.883
relative viability (LCLC-103H; first compound 158.11 µM): 0.873
relative viability (LCLC-103H; first compound 500 µM): 0.964
relative viability (HARA; first compound 5 µM): 0.856
relative viability (HARA; first compound 15.81 µM): 0.681
relative viability (HARA; first compound 50 µM): 0.942
relative viability (HARA; first compound 158.11 µM): 0.401
relative viability (HARA; first compound 500 µM): 0.0463
relative viability (NCI-H1944; first compound 5 µM): 0.841
relative viability (NCI-H1944; first compound 15.81 µM): 0.843
relative viability (NCI-H1944; first compound 50 µM): 0.778
relative viability (NCI-H1944; first compound 158.11 µM): 0.803
relative viability (NCI-H1944; first compound 500 µM): 0.743
relative viability (COR-L23; first compound 5 µM): 0.745
relative viability (COR-L23; first compound 15.81 µM): 0.696
relative viability (COR-L23; first compound 50 µM): 0.852
relative viability (COR-L23; first compound 158.11 µM): 0.281
relative viability (COR-L23; first compound 500 µM): 0.0191
relative viability (NCI-H2085; first compound 5 µM): 1.01
relative viability (NCI-H2085; first compound 15.81 µM): 0.927
relative viability (NCI-H2085; first compound 50 µM): 0.906
relative viability (NCI-H2085; first compound 158.11 µM): 0.591
relative viability (NCI-H2085; first compound 500 µM): 0.242
relative viability (HCC-44; first compound 5 µM): 0.841
relative viability (HCC-44; first compound 15.81 µM): 0.758
relative viability (HCC-44; first compound 50 µM): 0.92
relative viability (HCC-44; first compound 158.11 µM): 0.374
relative viability (HCC-44; first compound 500 µM): 0.041
relative viability (NCI-H727; first compound 5 µM): 0.531
relative viability (NCI-H727; first compound 15.81 µM): 0.558
relative viability (NCI-H727; first compound 50 µM): 0.662
relative viability (NCI-H727; first compound 158.11 µM): 0.226
relative viability (NCI-H727; first compound 500 µM): 0.0618
relative viability (NCI-H2405; first compound 5 µM): 0.882
relative viability (NCI-H2405; first compound 15.81 µM): 0.78
relative viability (NCI-H2405; first compound 50 µM): 0.778
relative viability (NCI-H2405; first compound 158.11 µM): 0.772
relative viability (NCI-H2405; first compound 500 µM): 0.734
relative viability (NCI-H358; first compound 5 µM): 0.851
relative viability (NCI-H358; first compound 15.81 µM): 0.742
relative viability (NCI-H358; first compound 50 µM): 0.912
relative viability (NCI-H358; first compound 158.11 µM): 0.261
relative viability (NCI-H358; first compound 500 µM): 0.0364
relative viability (EPLC-272H; first compound 5 µM): 0.95
relative viability (EPLC-272H; first compound 15.81 µM): 0.813
relative viability (EPLC-272H; first compound 50 µM): 0.94
relative viability (EPLC-272H; first compound 158.11 µM): 0.923
relative viability (EPLC-272H; first compound 500 µM): 1.04
relative viability (NCI-H1792; first compound 5 µM): 0.675
relative viability (NCI-H1792; first compound 15.81 µM): 0.646
relative viability (NCI-H1792; first compound 50 µM): 0.71
relative viability (NCI-H1792; first compound 158.11 µM): 0.555
relative viability (NCI-H1792; first compound 500 µM): 0.709
relative viability (NCI-H1395; first compound 5 µM): 0.988
relative viability (NCI-H1395; first compound 15.81 µM): 1.08
relative viability (NCI-H1395; first compound 50 µM): 1.27
relative viability (NCI-H1395; first compound 158.11 µM): 0.99
relative viability (NCI-H1395; first compound 500 µM): 0.75
relative viability (SK-LU-1; first compound 5 µM): 1.05
relative viability (SK-LU-1; first compound 15.81 µM): 0.849
relative viability (SK-LU-1; first compound 50 µM): 0.57
relative viability (SK-LU-1; first compound 158.11 µM): 0.175
relative viability (SK-LU-1; first compound 500 µM): 0.114
relative viability (HCC-15; first compound 5 µM): 0.942
relative viability (HCC-15; first compound 15.81 µM): 0.805
relative viability (HCC-15; first compound 50 µM): 0.828
relative viability (HCC-15; first compound 158.11 µM): 0.562
relative viability (HCC-15; first compound 500 µM): 0.35
relative viability (HCC-366; first compound 5 µM): 0.322
relative viability (HCC-366; first compound 15.81 µM): 0.373
relative viability (HCC-366; first compound 50 µM): 0.441
relative viability (HCC-366; first compound 158.11 µM): 0.355
relative viability (HCC-366; first compound 500 µM): 0.0061
relative viability (HCC-827; first compound 5 µM): 0.972
relative viability (HCC-827; first compound 15.81 µM): 1
relative viability (HCC-827; first compound 50 µM): 0.974
relative viability (HCC-827; first compound 158.11 µM): 0.47
relative viability (HCC-827; first compound 500 µM): 0.218
